Source: ChEMBL document CHEMBL1152896, “Design and in silico screening of combinatorial library of antimalarial analogs of triclosan inhibiting Plasmodium falciparum enoyl-acyl carrier protein reductase” (Eur J Med Chem, 2009)

Biological target: T1, Enoyl-acyl-carrier protein reductase (Plasmodium falciparum, UniProt Q965D5)
T1 sequence (Q965D5 whole entry): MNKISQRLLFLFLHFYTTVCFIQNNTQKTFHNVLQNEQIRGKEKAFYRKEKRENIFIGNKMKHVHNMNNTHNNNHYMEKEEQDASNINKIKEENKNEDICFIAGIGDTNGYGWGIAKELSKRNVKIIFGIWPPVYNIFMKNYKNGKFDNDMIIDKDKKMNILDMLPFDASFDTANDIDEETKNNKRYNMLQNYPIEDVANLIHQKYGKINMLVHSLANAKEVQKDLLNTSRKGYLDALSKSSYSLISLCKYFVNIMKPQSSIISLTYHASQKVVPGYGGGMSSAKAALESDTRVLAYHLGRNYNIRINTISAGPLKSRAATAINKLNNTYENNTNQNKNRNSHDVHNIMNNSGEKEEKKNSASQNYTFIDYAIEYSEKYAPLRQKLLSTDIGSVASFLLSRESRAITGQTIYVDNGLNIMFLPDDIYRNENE
Assay: Inhibition of Plasmodium falciparum enoyl-acyl carrier protein reductase expressed in Escherichia coli BL21(DE3) by spectrophotometry

For `Oc1cc(Cl)ccc1Oc1ccc(Cl)cc1Cl` [TRICLOSAN], the Ki was 0.05 µM.
